Reference: ChEMBL document CHEMBL1681690, “Discovery of TAK-733, a potent and selective MEK allosteric site inhibitor for the treatment of cancer” (Bioorg Med Chem Lett, 2011)
pEC50, pIC50: −log10 of the molar value. Active and inactive are the calls of the source. No cut-off for these calls is given here.

Assays:
[1] = Half life in human liver microsomes; type: ADME, Microsome
[2] = Half life in rat liver microsomes; type: ADME, Microsome
[3] = tested on: A-375; assay: Cytotoxicity against human A375 cells after 72 hrs by MTS assay; conditions: A-375, 72 h
[4] = tested on: COLO 205; assay: Cytotoxicity against human COLO205 cells after 72 hrs by MTS assay; conditions: COLO 205, 72 h
[5] = target: Dual specificity mitogen-activated protein kinase kinase 1 (Homo sapiens, UniProt Q02750)
Description: Inhibition of MEK1 by IMAP assay

[6] = target: RAF proto-oncogene serine/threonine-protein kinase (Homo sapiens) (UniProt P04049); assay: Inhibition of c-RAF up to 10 uM
[7] = target: Tyrosine-protein kinase ABL1 (Homo sapiens) (UniProt P00519); assay: Inhibition of Abl1 up to 10 uM
[8] = Volume of distribution at steady state in mouse at 1.4 mg/kg, iv and […], po; type: ADME, organism-based; conditions: in vivo, read-out: Vdss
[9] = Oral bioavailability in rat at 4.2 mg/kg; type: ADME, organism-based; conditions: in vivo
[10] = Mean residence time in rat at 1 mg/kg, iv; type: ADME, organism-based; parameters: dose 1 mg/kg, route intravenous; conditions: in vivo
[11] = Mean residence time in dog at 0.6 mg/kg, iv; type: ADME, organism-based, Canis lupus familiaris; parameters: dose 0.6 mg/kg, route intravenous; conditions: in vivo
[12] = target: [Pyruvate dehydrogenase (acetyl-transferring)] kinase isozyme 1, mitochondrial (Homo sapiens) (UniProt Q15118); assay: Inhibition of PDK1 up to 10 uM
[13] = Mean residence time in mouse at 1.4 mg/kg, iv; type: ADME, organism-based; parameters: dose 1.4 mg/kg, route intravenous; conditions: in vivo
[14] = Mean residence time in mouse at […], po; type: ADME, organism-based; parameters: dose 7.8 mg/kg, route oral; conditions: in vivo
[15] = Clearance in rat at 1 mg/kg, iv and 4.2 mg/kg, po; type: ADME, organism-based; conditions: in vivo
[16] = Clearance in dog at 0.6 mg/kg, iv and 2.3 mg/kg, po; type: ADME, organism-based, Canis lupus familiaris; conditions: in vivo
[17] = target: RAC-gamma serine/threonine-protein kinase (Homo sapiens) (UniProt Q9Y243); assay: Inhibition of AKT3 up to 10 uM
[18] = target: Glycogen synthase kinase-3 beta (Homo sapiens) (UniProt P49841); assay: Inhibition of GSK3-beta up to 10 uM
[19] = target: Epidermal growth factor receptor (Homo sapiens) (UniProt P00533); assay: Inhibition of EGFR up to 10 uM
[20] = target: Cyclin-dependent kinase 2/cyclin A (Homo sapiens) (UniProt P24941+P20248+P78396); assay: Inhibition of CDK2/cyclin A up to 10 uM; type: protein-complex assay
[21] = target: Platelet-derived growth factor receptor beta (Homo sapiens) (UniProt P09619); assay: Inhibition of PDGFRbeta up to 10 uM
[22] = Mean residence time in monkey at 0.5 mg/kg, iv; type: ADME, organism-based, Macaca mulatta; parameters: dose 0.5 mg/kg, route intravenous; conditions: rhesus monkey, in vivo
[23] = target: Proto-oncogene tyrosine-protein kinase Src (Homo sapiens) (UniProt P12931); assay: Inhibition of c-SRC up to 10 uM
[24] = Volume of distribution at steady state in monkey at 0.5 mg/kg, iv and 2 mg/kg, po; type: ADME, organism-based, Macaca mulatta; conditions: rhesus monkey, in vivo, read-out: Vdss
[25] = target: Angiopoietin-1 receptor (Homo sapiens) (UniProt Q02763); assay: Inhibition of Tie2 up to 10 uM
[26] = Volume of distribution at steady state in dog at 0.6 mg/kg, iv and 2.3 mg/kg, po; type: ADME, organism-based, Canis lupus familiaris; conditions: in vivo, read-out: Vdss
[27] = Oral bioavailability in dog at 2.3 mg/kg; type: ADME, organism-based, Canis lupus familiaris; conditions: in vivo
[28] = Mean residence time in monkey at 2 mg/kg, po; type: ADME, organism-based, Macaca mulatta; parameters: dose 2 mg/kg, route oral; conditions: rhesus monkey, in vivo
[29] = Oral bioavailability in monkey at 2 mg/kg; type: ADME, organism-based, Macaca mulatta; conditions: rhesus monkey, in vivo
[30] = target: Hepatocyte growth factor receptor (Homo sapiens) (UniProt P08581); assay: Inhibition of c-Met up to 10 uM
[31] = Plasma protein binding in human; type: ADME, cell-free; conditions: read-out: PPB (converted)
[32] = Mean residence time in rat at 4.2 mg/kg, po; type: ADME, organism-based; parameters: dose 4.2 mg/kg, route oral; conditions: in vivo
[33] = Volume of distribution at steady state in rat at 1 mg/kg, iv and 4.2 mg/kg, po; type: ADME, organism-based; conditions: in vivo, read-out: Vdss
[34] = target: Mitogen-activated protein kinase 14 (Homo sapiens) (UniProt Q16539); assay: Inhibition of p38alpha up to 10 uM
[35] = Mean residence time in dog at 2.3 mg/kg, po; type: ADME, organism-based, Canis lupus familiaris; parameters: dose 2.3 mg/kg, route oral; conditions: in vivo
[36] = target: Insulin receptor (Homo sapiens) (UniProt P06213); assay: Inhibition of IR up to 10 uM
[37] = target: Serine/threonine-protein kinase PLK3 (Homo sapiens) (UniProt Q9H4B4); assay: Inhibition of PLK3 up to 10 uM
[38] = Oral bioavailability in mouse at […]; type: ADME, organism-based; conditions: in vivo
[39] = Clearance in mouse at 1.4 mg/kg, iv and […] mg/kg, po; type: ADME, organism-based; conditions: in vivo
[40] = target: Tyrosine-protein kinase SYK (Homo sapiens) (UniProt P43405); assay: Inhibition of Syk up to 10 uM
[41] = Inhibition of CYP450 up to 30 uM; type: ADME
[42] = target: Tyrosine-protein kinase JAK3 (Homo sapiens) (UniProt P52333); assay: Inhibition of JAK3 up to 10 uM
[43] = Clearance in monkey at 0.5 mg/kg, iv and 2 mg/kg, po; type: ADME, organism-based, Macaca mulatta; conditions: rhesus monkey, in vivo
[44] = Plasma protein binding in mouse; type: ADME, cell-free; conditions: read-out: PPB (converted)
[45] = target: Calcium/calmodulin-dependent protein kinase type 1D (Homo sapiens) (UniProt Q8IU85); assay: Inhibition of CamK1delta up to 10 uM
[46] = target: Protein kinase C alpha type (Homo sapiens) (UniProt P17252); assay: Inhibition of PKCalpha up to 10 uM

Chain of Dual specificity mitogen-activated protein kinase kinase 1 (Q02750 whole entry): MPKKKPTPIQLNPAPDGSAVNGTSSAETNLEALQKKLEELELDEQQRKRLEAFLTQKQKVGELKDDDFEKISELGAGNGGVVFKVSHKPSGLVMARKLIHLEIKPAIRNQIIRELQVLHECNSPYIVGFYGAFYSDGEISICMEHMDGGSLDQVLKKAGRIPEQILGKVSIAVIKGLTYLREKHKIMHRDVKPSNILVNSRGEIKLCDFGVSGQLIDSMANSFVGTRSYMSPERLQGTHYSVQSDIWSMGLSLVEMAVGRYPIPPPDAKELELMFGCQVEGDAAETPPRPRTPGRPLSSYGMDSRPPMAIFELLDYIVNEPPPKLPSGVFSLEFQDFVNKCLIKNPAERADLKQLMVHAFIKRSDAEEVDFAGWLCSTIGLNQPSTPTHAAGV
Chain of Hepatocyte growth factor receptor (Homo sapiens) (P08581 whole entry): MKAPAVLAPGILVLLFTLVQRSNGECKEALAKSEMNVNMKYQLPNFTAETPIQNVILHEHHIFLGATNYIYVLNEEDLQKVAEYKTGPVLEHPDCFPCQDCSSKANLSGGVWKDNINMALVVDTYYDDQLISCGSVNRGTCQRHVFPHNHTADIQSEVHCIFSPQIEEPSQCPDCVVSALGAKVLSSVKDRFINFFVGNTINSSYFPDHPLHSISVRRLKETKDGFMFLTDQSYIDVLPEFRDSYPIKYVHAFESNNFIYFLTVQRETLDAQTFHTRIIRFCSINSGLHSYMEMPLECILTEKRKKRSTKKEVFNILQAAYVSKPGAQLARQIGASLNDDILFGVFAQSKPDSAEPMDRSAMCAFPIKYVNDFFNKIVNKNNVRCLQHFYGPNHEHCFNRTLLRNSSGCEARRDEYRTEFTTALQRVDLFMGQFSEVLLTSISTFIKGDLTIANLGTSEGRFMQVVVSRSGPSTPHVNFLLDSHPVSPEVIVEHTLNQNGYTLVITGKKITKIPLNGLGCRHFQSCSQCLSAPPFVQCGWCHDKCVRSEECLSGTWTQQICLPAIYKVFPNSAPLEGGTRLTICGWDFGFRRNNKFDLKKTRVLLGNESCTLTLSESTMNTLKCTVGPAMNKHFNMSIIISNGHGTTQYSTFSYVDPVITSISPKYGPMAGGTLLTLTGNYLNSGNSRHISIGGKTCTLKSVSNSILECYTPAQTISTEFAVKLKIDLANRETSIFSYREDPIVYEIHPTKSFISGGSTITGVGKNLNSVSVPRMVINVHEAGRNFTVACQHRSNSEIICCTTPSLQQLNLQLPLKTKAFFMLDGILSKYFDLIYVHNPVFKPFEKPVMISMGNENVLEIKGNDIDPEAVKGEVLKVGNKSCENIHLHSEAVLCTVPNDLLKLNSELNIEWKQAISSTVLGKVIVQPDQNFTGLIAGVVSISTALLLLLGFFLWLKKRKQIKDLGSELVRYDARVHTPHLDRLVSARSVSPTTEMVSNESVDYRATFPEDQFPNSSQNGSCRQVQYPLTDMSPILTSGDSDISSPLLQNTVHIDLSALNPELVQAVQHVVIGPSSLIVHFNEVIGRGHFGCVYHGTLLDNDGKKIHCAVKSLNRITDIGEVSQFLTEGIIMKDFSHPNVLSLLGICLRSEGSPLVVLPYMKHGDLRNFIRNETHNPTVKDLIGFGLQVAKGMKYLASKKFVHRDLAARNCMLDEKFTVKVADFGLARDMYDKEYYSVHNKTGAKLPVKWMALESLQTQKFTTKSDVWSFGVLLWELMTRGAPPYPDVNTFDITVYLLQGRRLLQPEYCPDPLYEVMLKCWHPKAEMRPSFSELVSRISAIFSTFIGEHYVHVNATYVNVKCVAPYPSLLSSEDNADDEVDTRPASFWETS
Chain of Epidermal growth factor receptor (Homo sapiens) (P00533 whole entry): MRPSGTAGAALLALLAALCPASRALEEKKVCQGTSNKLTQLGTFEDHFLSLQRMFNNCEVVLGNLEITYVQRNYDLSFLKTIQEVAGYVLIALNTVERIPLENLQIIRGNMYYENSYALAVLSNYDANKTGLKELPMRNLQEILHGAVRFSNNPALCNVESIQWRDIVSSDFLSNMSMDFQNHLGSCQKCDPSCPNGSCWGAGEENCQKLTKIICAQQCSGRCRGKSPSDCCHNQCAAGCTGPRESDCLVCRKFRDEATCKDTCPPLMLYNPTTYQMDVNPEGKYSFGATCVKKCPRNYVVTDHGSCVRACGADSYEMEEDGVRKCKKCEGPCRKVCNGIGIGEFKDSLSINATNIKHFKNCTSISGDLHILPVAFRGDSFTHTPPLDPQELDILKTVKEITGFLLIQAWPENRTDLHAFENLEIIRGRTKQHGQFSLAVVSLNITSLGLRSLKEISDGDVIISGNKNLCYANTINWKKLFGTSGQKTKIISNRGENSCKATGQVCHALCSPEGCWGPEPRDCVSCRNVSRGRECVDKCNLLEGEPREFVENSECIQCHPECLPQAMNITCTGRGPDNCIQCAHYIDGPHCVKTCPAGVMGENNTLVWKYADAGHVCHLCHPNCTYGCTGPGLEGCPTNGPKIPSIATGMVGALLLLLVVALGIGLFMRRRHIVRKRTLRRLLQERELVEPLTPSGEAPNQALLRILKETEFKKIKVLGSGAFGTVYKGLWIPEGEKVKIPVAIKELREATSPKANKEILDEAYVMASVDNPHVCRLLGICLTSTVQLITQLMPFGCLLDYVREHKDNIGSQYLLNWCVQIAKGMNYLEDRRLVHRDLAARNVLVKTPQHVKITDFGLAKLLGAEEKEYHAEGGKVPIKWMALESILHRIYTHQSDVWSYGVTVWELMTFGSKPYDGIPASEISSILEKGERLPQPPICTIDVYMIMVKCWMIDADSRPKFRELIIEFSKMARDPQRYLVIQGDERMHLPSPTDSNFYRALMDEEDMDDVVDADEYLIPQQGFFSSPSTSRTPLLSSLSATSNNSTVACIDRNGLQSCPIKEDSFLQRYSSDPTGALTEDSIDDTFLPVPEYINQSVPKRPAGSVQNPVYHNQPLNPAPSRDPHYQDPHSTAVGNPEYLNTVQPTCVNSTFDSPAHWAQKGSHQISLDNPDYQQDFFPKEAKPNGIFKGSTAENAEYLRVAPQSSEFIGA
Chain of RAF proto-oncogene serine/threonine-protein kinase (Homo sapiens) (P04049 whole entry): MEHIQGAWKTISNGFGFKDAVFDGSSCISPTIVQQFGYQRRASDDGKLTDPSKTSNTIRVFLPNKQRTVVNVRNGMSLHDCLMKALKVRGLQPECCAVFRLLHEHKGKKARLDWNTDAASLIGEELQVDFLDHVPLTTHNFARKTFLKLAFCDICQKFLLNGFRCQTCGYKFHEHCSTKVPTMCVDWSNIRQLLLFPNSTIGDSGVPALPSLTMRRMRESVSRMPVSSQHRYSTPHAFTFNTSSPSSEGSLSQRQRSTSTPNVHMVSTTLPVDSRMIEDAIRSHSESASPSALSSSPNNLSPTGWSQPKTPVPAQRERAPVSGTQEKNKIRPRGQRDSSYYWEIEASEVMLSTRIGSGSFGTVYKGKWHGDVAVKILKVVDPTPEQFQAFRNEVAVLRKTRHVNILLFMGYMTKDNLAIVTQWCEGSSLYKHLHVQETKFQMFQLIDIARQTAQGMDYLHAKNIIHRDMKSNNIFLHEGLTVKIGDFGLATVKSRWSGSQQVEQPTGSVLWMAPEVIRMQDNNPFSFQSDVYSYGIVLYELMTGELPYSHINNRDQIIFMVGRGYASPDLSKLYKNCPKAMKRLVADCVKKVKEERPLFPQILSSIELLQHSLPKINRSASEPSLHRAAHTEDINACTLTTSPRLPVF
Chain of Calcium/calmodulin-dependent protein kinase type 1D (Homo sapiens) (Q8IU85 whole entry, looked up): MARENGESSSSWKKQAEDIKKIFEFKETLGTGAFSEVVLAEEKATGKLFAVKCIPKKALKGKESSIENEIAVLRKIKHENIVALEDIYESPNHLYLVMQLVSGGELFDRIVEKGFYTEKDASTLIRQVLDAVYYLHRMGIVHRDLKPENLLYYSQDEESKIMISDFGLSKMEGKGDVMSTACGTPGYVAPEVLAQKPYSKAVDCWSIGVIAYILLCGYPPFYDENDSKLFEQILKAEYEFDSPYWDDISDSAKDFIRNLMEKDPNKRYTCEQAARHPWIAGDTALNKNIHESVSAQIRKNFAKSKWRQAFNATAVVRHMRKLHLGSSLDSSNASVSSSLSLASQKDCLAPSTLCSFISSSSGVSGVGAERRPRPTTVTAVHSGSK
Chain of Mitogen-activated protein kinase 14 (Homo sapiens) (Q16539 whole entry): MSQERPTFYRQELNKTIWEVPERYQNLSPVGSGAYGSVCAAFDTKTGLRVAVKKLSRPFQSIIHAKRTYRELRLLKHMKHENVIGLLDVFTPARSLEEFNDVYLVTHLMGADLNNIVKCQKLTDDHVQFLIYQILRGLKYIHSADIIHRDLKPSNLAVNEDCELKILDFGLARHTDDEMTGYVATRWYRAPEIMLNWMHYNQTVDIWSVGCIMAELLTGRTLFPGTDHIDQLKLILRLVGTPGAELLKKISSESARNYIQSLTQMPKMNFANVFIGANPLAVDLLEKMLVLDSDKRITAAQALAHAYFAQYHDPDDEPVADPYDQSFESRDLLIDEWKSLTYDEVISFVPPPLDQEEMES

## Cn1c(=O)cc(Nc2ccc(I)cc2F)c2c(=O)n(C[C@@H](O)CO)cnc21
[1]
  half-life: 0.8 h
[2]
  half-life: 0.417 h
[3]
  pEC50: 7.59
[4]
  pEC50: 7.57

## Cn1c(=O)cc(Nc2ccc(I)cc2F)c2c(=O)n(C[C@H](O)CO)cnc21
[1]
  half-life: > 3.33 h
[2]
  half-life: > 3.33 h
[3]
  pEC50: 7.40
[4]
  pEC50: 7.42

## Cn1c(=O)cc(Nc2ccc(I)cc2F)c2c(=O)n(C[C@@H](O)CCO)cnc21
[1]
  half-life: > 3.33 h
[2]
  half-life: 0.667 h
[3]
  pEC50: 6.32
[4]
  pEC50: 6.85

## Cn1c(=O)c(F)c(Nc2ccc(I)cc2F)c2c(=O)n(CCO)cnc21
[1]
  half-life: 0.85 h
[2]
  half-life: 0.483 h
[3]
  pEC50: 8.20
[4]
  pEC50: 8.43

## Cn1c(=O)c(F)c(Nc2ccc(I)cc2F)c2c(=O)n(OC[C@H](O)CO)cnc21
[1]
  half-life: 0.583 h
[2]
  half-life: 0.467 h
[3]
  pEC50: 8.52
[5]
  pIC50: 8.51
[4]
  pEC50: 9.00

## C#Cc1ccc(Nc2c(F)c(=O)n(C)c3ncn(C[C@@H](O)CO)c(=O)c23)c(F)c1
[1]
  half-life: 0.817 h
[2]
  half-life: 0.55 h
[3]
  pEC50: 7.96
[5]
  pIC50: 8.32
[4]
  pEC50: 8.00

## CN(C)CCn1cnc2c(c(Nc3ccc(I)cc3F)cc(=O)n2C)c1=O
[1]
  half-life: 0.483 h
[2]
  half-life: 0.133 h
[5]
  pIC50: 6.13

## Cn1c(=O)c(Cl)c(Nc2ccc(I)cc2F)c2c(=O)n(C[C@@H](O)CO)cnc21
[1]
  half-life: 0.367 h
[2]
  half-life: > 3.33 h
[3]
  pEC50: 7.60
[5]
  pIC50: 8.23
[4]
  pEC50: 8.00

## Cn1c(=O)c(F)c(Nc2ccc(Br)cc2F)c2c(=O)n(C[C@@H](O)CO)cnc21
[1]
  half-life: 3.13 h
[2]
  half-life: 0.817 h
[3]
  pEC50: 7.30
[4]
  pEC50: 7.42

## Cc1c(Nc2ccc(I)cc2F)c2c(=O)n(C[C@H](O)CO)cnc2n(C)c1=O
[1]
  half-life: > 3.33 h
[2]
  half-life: > 3.33 h
[3]
  pEC50: 8.10
[4]
  pEC50: 7.89

## Cn1c(=O)cc(Nc2ccc(I)cc2F)c2c(=O)n(CCCO)cnc21
[1]
  half-life: > 3.33 h
[2]
  half-life: 0.333 h
[3]
  pEC50: 7.64
[5]
  pIC50: 8.31
[4]
  pEC50: 7.80

## Cn1c(=O)c(F)c(Nc2ccc(I)cc2F)c2c(=O)n(C[C@@H](O)CO)cnc21 [TAK-733]
[6]
  inhibition: inactive
[7]
  inhibition: inactive
[8]
  Vd: 1.96 L/kg
[9]
  bioavailability: 71%
[10]
  MRT: 2 h
[11]
  MRT: 8.9 h
[1]
  half-life: 2.38 h
[12]
  inhibition: inactive
[13]
  MRT: 1.9 h
[14]
  MRT: 4.6 h
[15]
  clearance: 13.7 mL/min/kg
[2]
  half-life: 2.25 h
[3]
  pEC50: 8.51
[16]
  clearance: 5.9 mL/min/kg
[17]
  inhibition: inactive
[18]
  inhibition: inactive
[5]
  pIC50: 8.49
[19]
  inhibition: inactive
[20]
  inhibition: inactive
[21]
  inhibition: inactive
[22]
  MRT: 5.8 h
[23]
  inhibition: inactive
[24]
  Vd: 3.75 L/kg
[25]
  inhibition: inactive
[26]
  Vd: 3.07 L/kg
[27]
  bioavailability: 76%
[28]
  MRT: 23.8 h
[29]
  bioavailability: > 38%
[30]
  inhibition: inactive
[31]
  fraction unbound: 0.03
[32]
  MRT: 11.5 h
[33]
  Vd: 1.64 L/kg
[34]
  inhibition: inactive
[35]
  MRT: 12.9 h
[36]
  inhibition: inactive
[4]
  pEC50: 8.68
[37]
  inhibition: inactive
[38]
  bioavailability: 67%
[39]
  clearance: 17.2 mL/min/kg
[40]
  inhibition: inactive
[41]
  inhibition (INH): Not Active
[42]
  inhibition: inactive
[43]
  clearance: 11.1 mL/min/kg
[44]
  fraction unbound: 0.04
[45]
  inhibition: inactive
[46]
  inhibition: inactive

## Cn1c(=O)cc(Nc2ccc(I)cc2F)c2c(=O)n(CCO)cnc21
[1]
  half-life: 0.617 h
[2]
  half-life: 0.183 h
[3]
  pEC50: 7.22
[4]
  pEC50: 7.42

## Cn1cnc2c(c(Nc3ccc(I)cc3F)cc(=O)n2C)c1=O
[1]
  half-life: > 3.33 h
[2]
  half-life: 0.217 h
[3]
  pEC50: 7.07
[4]
  pEC50: 7.31

## Cn1c(=O)c(F)c(Nc2ccc(I)cc2F)c2c(=O)n(C(CO)CO)cnc21
[1]
  half-life: 0.517 h
[2]
  half-life: 0.8 h
[3]
  pEC50: 8.10
[5]
  pIC50: 8.48
[4]
  pEC50: 8.46

## Cn1c(=O)c(F)c(Nc2ccc(I)cc2F)c2c(=O)n(C[C@H](O)CO)cnc21
[1]
  half-life: 3.05 h
[2]
  half-life: 1.52 h
[3]
  pEC50: 8.52
[5]
  pIC50: 8.49
[4]
  pEC50: 8.59

## Cc1c(Nc2ccc(I)cc2F)c2c(=O)n(C[C@@H](O)CO)cnc2n(C)c1=O
[1]
  half-life: 1.95 h
[2]
  half-life: 1.97 h
[3]
  pEC50: 8.13
[4]
  pEC50: 8.10

## Cc1c(Nc2ccc(I)cc2F)c2c(=O)n(CCO)cnc2n(C)c1=O
[1]
  half-life: > 3.33 h
[2]
  half-life: > 3.33 h
[3]
  pEC50: 7.74
[5]
  pIC50: 8.40
[4]
  pEC50: 8.05
